The target of assay [1] is T1, Leukotriene B4 receptor 1 (Homo sapiens, UniProt Q15722). Briefly: Antagonistic activity in human polymorphonuclear (PMN) LTB4 receptor. The format is functional.
Assay [2] is described as follows: Effect on LTB4-induced neutrophil function (neutrophilia) after systemic administration of 0.3 micro/kg to cynomolgus monkey. The format is functional, Cercopithecidae.
Assay [3] in a line: Effect on LTB4-induced neutrophil function (neutropenia) after systemic administration of 0.3 micro/kg to cynomolgus monkey. The format is functional, Cercopithecidae.
Assay [4] concerns the target T1, Leukotriene B4 receptor 1. Put plainly: Antagonistic activity against human polymorphonuclear (PMN) LTB4 receptor. In kind it is functional.

SMILES strings stand for the structures.

T1 sequence (Q15722 whole entry): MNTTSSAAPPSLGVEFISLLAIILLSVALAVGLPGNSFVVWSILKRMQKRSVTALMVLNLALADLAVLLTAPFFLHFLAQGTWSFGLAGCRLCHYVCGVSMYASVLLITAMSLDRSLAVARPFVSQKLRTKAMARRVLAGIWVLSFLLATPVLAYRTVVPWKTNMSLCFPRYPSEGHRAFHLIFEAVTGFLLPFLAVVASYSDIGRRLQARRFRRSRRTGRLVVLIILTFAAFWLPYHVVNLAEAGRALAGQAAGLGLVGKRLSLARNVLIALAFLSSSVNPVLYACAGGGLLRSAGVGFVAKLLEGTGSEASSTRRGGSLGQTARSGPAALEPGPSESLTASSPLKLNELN

In turn, `CN(CCc1ccccc1)C(=O)Cc1ccc(OCc2ccccc2)cc1` yielded an IC50 in assay [1] of 4700 nM.
Take `CN(CCc1ccccc1)C(=O)Cc1cc(C(=O)O)cc2c(OCc3ccccc3)cccc12`: the Inhibition in assay [2] is listed as 73%; in assay [3] it was 61%.
Consider `COc1ccc(/C=C/CCCCOc2ccc(C(=O)c3cccc(C(=O)O)c3)cc2CCC(=O)O)cc1`, for which the IC50 in assay [4] turned out to be 12 nM.

In general, IC50 refers to the concentration at which inhibition is half-maximal. Low values mean greater potency, high ones weaker potency. As usually defined, the Inhibition is the relative decrease from the control value, in per cent. Read a low Inhibition as little suppression.

For the origin of these results see ChEMBL document CHEMBL1126258, “4-[2-[Methyl(2-phenethyl)amino]-2-oxoethyl]-8-(phenylmethoxy)-2- naphthalenecarboxylic acid: a high affinity, competitive, orally active leukotriene B4 receptor antagonist” (J Med Chem, 1992).
